Measured values: US20150105252A1, “SUBSTITUTED PYRAZOLES AS HERBICIDES” (E I DU PONT DE NEMOURS AND COMPANY, priority 2013, published 2015)

Legend:
crabgrass, large = experiment: Test C preemergence; type: in vivo, Digitaria sanguinalis; details: for Plant response rating (scale of 0 to 100), Crabgrass, Large: Preemergence, 250 g ai/ha; for Crabgrass, Large plant response rating / Plant response rating, Crabgrass, Large: preemergence, 13 to 15 days; for Crabgrass, Large plant response rating: scale 0 to 100 (0 no effect, 100 complete control); for Plant response rating, Crabgrass, Large: 125 g ai/ha, scale 0 to 100, 0 = no effect, 100 = complete control
In short: (§1)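 Visual rating, 0–100 scale (0 no effect, 100 complete control), vs untreated controls after 13–15 d greenhouse. Pre: seeds in loam/sand, treated at sowing. Post: plants in peat-based mix, 1- to 4-leaf (2–18 cm). Solvent + surfactant formulation, non-phytotoxic.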

nutsedge, yellow = experiment: Test C preemergence; type: in vivo, Cyperus esculentus; details: for Plant response rating (scale of 0 to 100), Nutsedge, Yellow: Preemergence, 250 g ai/ha; for Nutsedge, Yellow plant response rating / Plant response rating, Nutsedge, Yellow: preemergence, 13 to 15 days; for Nutsedge, Yellow plant response rating: scale 0 to 100 (0 no effect, 100 complete control); for Plant response rating, Nutsedge, Yellow: 125 g ai/ha, scale 0 to 100, 0 = no effect, 100 = complete control
In short: as §1

barnyardgrass [1] = experiment: Test A preemergence; type: in vivo, Echinochloa crus-galli; details: preemergence
In short: (§2)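 After sowing in a sand–loam mix, pots received compound preemergence by directed soil spray, or postemergence once plants reached the one- to two-leaf stage (2–10 cm). Formulation contained surfactant in a non-phytotoxic solvent. Injury was scored visually after ~10 greenhouse days, 0–100 scale.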

corn = experiment: Test A postemergence; type: in vivo, Zea mays
In short: as §2

soybean = experiment: Test C postemergence; type: in vivo, Glycine max; details: for Plant response rating (scale of 0 to 100 where 0 is no effect and 100 is complete control), Soybean: Postemergence, 31 g ai/ha, visually evaluated after 13 to 15 days; for Soybean plant response rating / Plant response rating, Soybean: postemergence; for Soybean plant response rating: 62 g ai/ha, scale 0 to 100
In short: as §1

pigweed = experiment: Test A postemergence; type: in vivo, Amaranthus retroflexus
In short: as §2

barnyardgrass [2] = experiment: Test A postemergence; type: in vivo, Echinochloa crus-galli
In short: as §2

oat, wild = experiment: Test C postemergence; type: in vivo, Avena fatua; details: for Plant response rating (scale of 0 to 100 where 0 is no effect and 100 is complete control), Oat, Wild: Postemergence, 31 g ai/ha, visually evaluated after 13 to 15 days; for Oat, Wild plant response rating / Plant response rating, Oat, Wild: postemergence; for Oat, Wild plant response rating: 62 g ai/ha, scale 0 to 100
In short: as §1

velvetleaf = experiment: Test C preemergence; type: in vivo, Abutilon theophrasti; details: for Plant response rating (scale of 0 to 100), Velvetleaf: Preemergence, 250 g ai/ha; for Velvetleaf plant response rating / Plant response rating, Velvetleaf: preemergence, 13 to 15 days; for Velvetleaf plant response rating: scale 0 to 100 (0 no effect, 100 complete control); for Plant response rating, Velvetleaf: 125 g ai/ha, scale 0 to 100, 0 = no effect, 100 = complete control
In short: as §1

barnyardgrass [3] = experiment: Test C preemergence; type: in vivo, Echinochloa crus-galli; details: for Plant response rating (scale of 0 to 100), Barnyardgrass: Preemergence, 250 g ai/ha; for Barnyardgrass plant response rating / Plant response rating, Barnyardgrass: preemergence, 13 to 15 days; for Barnyardgrass plant response rating: scale 0 to 100 (0 no effect, 100 complete control); for Plant response rating, Barnyardgrass: 125 g ai/ha, scale 0 to 100, 0 = no effect, 100 = complete control
In short: as §1

ryegrass, Italian = experiment: Test C postemergence; type: in vivo, Lolium multiflorum; details: for Plant response rating (scale of 0 to 100 where 0 is no effect and 100 is complete control), Ryegrass, Italian: Postemergence, 31 g ai/ha, visually evaluated after 13 to 15 days; for Ryegrass, Italian plant response rating / Plant response rating, Ryegrass, Italian: postemergence; for Ryegrass, Italian plant response rating: 62 g ai/ha, scale 0 to 100
In short: as §1

morningglory = experiment: Test C preemergence; type: in vivo, Ipomoea coccinea; details: for Plant response rating (scale of 0 to 100), Morningglory: Preemergence, 250 g ai/ha; for Morningglory plant response rating / Plant response rating, Morningglory: preemergence, 13 to 15 days; for Morningglory plant response rating: scale 0 to 100 (0 no effect, 100 complete control); for Plant response rating, Morningglory: 125 g ai/ha, scale 0 to 100, 0 = no effect, 100 = complete control
In short: as §1

oilseed rape = experiment: Test C postemergence; type: in vivo, Brassica napus; details: for Plant response rating (scale of 0 to 100 where 0 is no effect and 100 is complete control), Oilseed Rape: Postemergence, 31 g ai/ha, visually evaluated after 13 to 15 days; for Oilseed Rape plant response rating / Plant response rating, Oilseed Rape: postemergence; for Oilseed Rape plant response rating: 62 g ai/ha, scale 0 to 100
In short: as §1

kochia = experiment: Test C postemergence; type: in vivo, Kochia scoparia; details: for Plant response rating (scale of 0 to 100 where 0 is no effect and 100 is complete control), Kochia: Postemergence, 31 g ai/ha, visually evaluated after 13 to 15 days; for Kochia plant response rating / Plant response rating, Kochia: postemergence; for Kochia plant response rating: 62 g ai/ha, scale 0 to 100
In short: as §1

[4] = 125 g ai/ha, visual injury, 0 to 100 scale, approx. 10 days
[5] = 500 g ai/ha, visual injury after approx. 10 days, 0 to 100 scale (0 no effect, 100 complete control)
[6] = Postemergence, 500 g ai/ha, 0 to 100 scale (0 no effect, 100 complete control)
[7] = postemergence, 125 g ai/ha, about 10 days, visual rating on 0 to 100 scale (0 no effect, 100 complete control)
[8] = 250 g ai/ha, scale 0 to 100 (0 no effect, 100 complete control)
[9] = 125 g ai/ha, scale 0 to 100, 0 no effect, 100 complete control

CCCc1cc(C(=O)NCC(F)(F)F)nn1Cc1ccnc(OC(F)F)c1 [Compound 127] was tested, and the “Plant response rating (scale of 0 to 100), Crabgrass, Large” value (crabgrass, large) was 100, the “Crabgrass, Large plant response rating” value (crabgrass, large; 31 g ai/ha, visual rating) was 80 and the “Crabgrass, Large plant response rating” value (crabgrass, large; 62 g ai/ha) was 100. The “Plant response rating, Crabgrass, Large” value (crabgrass, large) was 100, the “Plant response rating (scale of 0 to 100), Nutsedge, Yellow” value (nutsedge, yellow) was 85 and the “Nutsedge, Yellow plant response rating” value (nutsedge, yellow; 31 g ai/ha, visual rating) was 25. For the same molecule, the “Nutsedge, Yellow plant response rating” value (nutsedge, yellow; 62 g ai/ha) was 50, the “Plant response rating, Nutsedge, Yellow” value (nutsedge, yellow) was 70 and the “Barnyardgrass plant response rating” value (barnyardgrass [1]; [4]) was 90. For the same molecule, the “Barnyardgrass plant response rating” value (barnyardgrass [1]; [5]) was 90, the “Corn plant response rating” value (corn; [6]) was 90 and the “Corn plant response rating” value (corn; [7]) was 90. For the same molecule, the “Plant response rating (scale of 0 to 100 where 0 is no effect and 100 is complete control), Soybean” value (soybean) was 40, the “Soybean plant response rating” value (soybean) was 65 and the “Plant response rating, Soybean” value (soybean; [8]) was 85. For the same molecule, the “Plant response rating, Soybean” value (soybean; [9]) was 70, the “Pigweed plant response rating” value (pigweed; [6]) was 90 and the “Pigweed plant response rating” value (pigweed; [7]) was 90. For the same molecule, the “Barnyardgrass plant response rating” value (barnyardgrass [2]; [6]) was 90, the “Barnyardgrass plant response rating” value (barnyardgrass [2]; [7]) was 90 and the “Plant response rating (scale of 0 to 100 where 0 is no effect and 100 is complete control), Oat, Wild” value (oat, wild) was 5. The “Oat, Wild plant response rating” value (oat, wild) was 5, the “Plant response rating, Oat, Wild” value (oat, wild; [8]) was 35 and the “Plant response rating, Oat, Wild” value (oat, wild; [9]) was 5. The “Plant response rating (scale of 0 to 100), Velvetleaf” value (velvetleaf) was 100, the “Velvetleaf plant response rating” value (velvetleaf; 31 g ai/ha, visual rating) was 60 and the “Velvetleaf plant response rating” value (velvetleaf; 62 g ai/ha) was 60. For the same molecule, the “Plant response rating, Velvetleaf” value (velvetleaf) was 100, the “Plant response rating (scale of 0 to 100), Barnyardgrass” value (barnyardgrass [3]) was 95 and the “Barnyardgrass plant response rating” value (barnyardgrass [3]; 31 g ai/ha) was 45. The “Barnyardgrass plant response rating” value (barnyardgrass [3]; 62 g ai/ha) was 60, the “Plant response rating, Barnyardgrass” value (barnyardgrass [3]) was 95 and the “Plant response rating (scale of 0 to 100 where 0 is no effect and 100 is complete control), Ryegrass, Italian” value (ryegrass, Italian) was 5. The “Ryegrass, Italian plant response rating” value (ryegrass, Italian) was 5, the “Plant response rating, Ryegrass, Italian” value (ryegrass, Italian; [8]) was 40 and the “Plant response rating, Ryegrass, Italian” value (ryegrass, Italian; [9]) was 10. For the same molecule, the “Plant response rating (scale of 0 to 100), Morningglory” value (morningglory) was 100, the “Morningglory plant response rating” value (morningglory; 31 g ai/ha, visual rating) was 60 and the “Morningglory plant response rating” value (morningglory; 62 g ai/ha) was 55. For the same molecule, the “Plant response rating, Morningglory” value (morningglory) was 100, the “Plant response rating (scale of 0 to 100 where 0 is no effect and 100 is complete control), Oilseed Rape” value (oilseed rape) was 65 and the “Oilseed Rape plant response rating” value (oilseed rape) was 70. The “Plant response rating, Oilseed Rape” value (oilseed rape; [8]) was 85, the “Plant response rating, Oilseed Rape” value (oilseed rape; [9]) was 80 and the “Plant response rating (scale of 0 to 100 where 0 is no effect and 100 is complete control), Kochia” value (kochia) was 60. The “Kochia plant response rating” value (kochia) was 65, the “Plant response rating, Kochia” value (kochia; [8]) was 90 and the “Plant response rating, Kochia” value (kochia; [9]) was 65.

CCOc1cc(C(=O)NCC(F)(F)F)nn1Cc1ccnc(OC(F)F)c1 [Compound 128] was tested, and the “Plant response rating (scale of 0 to 100), Crabgrass, Large” value (crabgrass, large) was 100, the “Crabgrass, Large plant response rating” value (crabgrass, large; 31 g ai/ha, visual rating) was 100 and the “Crabgrass, Large plant response rating” value (crabgrass, large; 62 g ai/ha) was 95. For the same molecule, the “Plant response rating, Crabgrass, Large” value (crabgrass, large) was 100, the “Plant response rating (scale of 0 to 100), Nutsedge, Yellow” value (nutsedge, yellow) was 90 and the “Nutsedge, Yellow plant response rating” value (nutsedge, yellow; 31 g ai/ha, visual rating) was 45. For the same molecule, the “Nutsedge, Yellow plant response rating” value (nutsedge, yellow; 62 g ai/ha) was 75, the “Plant response rating, Nutsedge, Yellow” value (nutsedge, yellow) was 80 and the “Barnyardgrass plant response rating” value (barnyardgrass [1]; [4]) was 100. The “Barnyardgrass plant response rating” value (barnyardgrass [1]; [5]) was 100, the “Corn plant response rating” value (corn; [6]) was 90 and the “Corn plant response rating” value (corn; [7]) was 90. For the same molecule, the “Plant response rating (scale of 0 to 100 where 0 is no effect and 100 is complete control), Soybean” value (soybean) was 65, the “Soybean plant response rating” value (soybean) was 95 and the “Plant response rating, Soybean” value (soybean; [8]) was 98. The “Plant response rating, Soybean” value (soybean; [9]) was 95, the “Pigweed plant response rating” value (pigweed; [6]) was 100 and the “Pigweed plant response rating” value (pigweed; [7]) was 100. For the same molecule, the “Barnyardgrass plant response rating” value (barnyardgrass [2]; [6]) was 100, the “Barnyardgrass plant response rating” value (barnyardgrass [2]; [7]) was 100 and the “Plant response rating (scale of 0 to 100 where 0 is no effect and 100 is complete control), Oat, Wild” value (oat, wild) was 5. The “Oat, Wild plant response rating” value (oat, wild) was 10, the “Plant response rating, Oat, Wild” value (oat, wild; [8]) was 20 and the “Plant response rating, Oat, Wild” value (oat, wild; [9]) was 25. The “Plant response rating (scale of 0 to 100), Velvetleaf” value (velvetleaf) was 100, the “Velvetleaf plant response rating” value (velvetleaf; 31 g ai/ha, visual rating) was 5 and the “Velvetleaf plant response rating” value (velvetleaf; 62 g ai/ha) was 100. The “Plant response rating, Velvetleaf” value (velvetleaf) was 100, the “Plant response rating (scale of 0 to 100), Barnyardgrass” value (barnyardgrass [3]) was 100 and the “Barnyardgrass plant response rating” value (barnyardgrass [3]; 31 g ai/ha) was 80. For the same molecule, the “Barnyardgrass plant response rating” value (barnyardgrass [3]; 62 g ai/ha) was 90, the “Plant response rating, Barnyardgrass” value (barnyardgrass [3]) was 98 and the “Plant response rating (scale of 0 to 100 where 0 is no effect and 100 is complete control), Ryegrass, Italian” value (ryegrass, Italian) was 5. For the same molecule, the “Ryegrass, Italian plant response rating” value (ryegrass, Italian) was 10, the “Plant response rating, Ryegrass, Italian” value (ryegrass, Italian; [8]) was 30 and the “Plant response rating, Ryegrass, Italian” value (ryegrass, Italian; [9]) was 15. For the same molecule, the “Plant response rating (scale of 0 to 100), Morningglory” value (morningglory) was 100, the “Morningglory plant response rating” value (morningglory; 31 g ai/ha, visual rating) was 75 and the “Morningglory plant response rating” value (morningglory; 62 g ai/ha) was 70. For the same molecule, the “Plant response rating, Morningglory” value (morningglory) was 98, the “Plant response rating (scale of 0 to 100 where 0 is no effect and 100 is complete control), Oilseed Rape” value (oilseed rape) was 50 and the “Oilseed Rape plant response rating” value (oilseed rape) was 60. The “Plant response rating, Oilseed Rape” value (oilseed rape; [8]) was 90, the “Plant response rating, Oilseed Rape” value (oilseed rape; [9]) was 60 and the “Plant response rating (scale of 0 to 100 where 0 is no effect and 100 is complete control), Kochia” value (kochia) was 60. For the same molecule, the “Kochia plant response rating” value (kochia) was 65, the “Plant response rating, Kochia” value (kochia; [8]) was 90 and the “Plant response rating, Kochia” value (kochia; [9]) was 65.
